Measurements taken from US20120202287A1, “Stem Cell Culture Methods” (priority 2009, published 2012).

System: SA121 hESCs
Test: General (monolayer) differentiation on matrigel in defined media, qRT-PCR of stem cell and differentiation markers after 14 days
Format: cell-based, human
Design: key to NO EHNA EFFECT: X: NO EHNA EFFECT; key to Full EHNA effect: those which maintained at least 50% of the level of NANOG-expression in comparison to EHNA and those that inhibited the expression of PAX6 to 50% or less than the value untreated controls were considered to have an EHNA-like effect
Conditions: for PARTIAL EHNA EFFECT (PAX6): only PAX6 50% or less of untreated control; for NO EHNA EFFECT: neither NANOG nor PAX6 criterion met; for Full EHNA effect: NANOG at least 50% of EHNA level and PAX6 50% or less of untreated control
Procedure: In order to ascertain the efficacy of the compounds of the present invention, each compound was tested to determine whether it can maintain the stem cell marker NANOG and/or block the differentiation marker PAX6 in the face of differentiating conditions in a manner similar to EHNA. Cells enzymatically passaged onto matrigel-coated dishes and grown for 2 weeks in defined media with or without (control) compound addition were analysed by qRT-PCR to determine the level of NANOG and PAX6 expression.
For general differentiation experiments cells were passaged with trypsin onto matrigel coated twelve-well dishes in the fully supportive media (see above). The media was then changed to defined media 24 h later and any experimental component was first added at this point. The media and experimental supplement were changed daily.
Cells were routinely harvested for qRT-PCR analysis 14 days after the first addition of the experimental compound.
Total RNA was extracted using QIAGEN RNeasy kits (Qiagen Inc, Valencia, Calif., http://www.qiagen.com) and DNaseI treatment was performed using Turbo DNA-Free (Ambion). The absence of genomic DNA was confirmed by quantitative PCR (qPCR) (see below) using glyceraldehyde-3-phosphate dehydrogenase (GAPDH) Taqman primers and probe (MWG). cDNA was synthesized with 2 μg total RNA in 20 μl using Superscript II according to manufacturers' instructions ((Carlsbad, Calif., http://www.Invitrogen.com)). For qPCR, cDNAs were diluted 1 in 60 and 5 μl used per sample in a 15 μl total reaction volume. Platinum pPCR supermix UDG with Rox (Carlsbad, Calif., http://www.Invitrogen.com) was used according to the manufacturer's instructions using an Applied Biosystems 7300 real time PCR system (Applied Biosystems, Warrington, UK, http://europe.appliedbiosystems.com). Each reaction contained 0.6 μM of each primer and Taqman probe (MWG). Biological and technical replicates were each performed in triplicate for each sample, standardised to the GAPDH housekeeping gene and relative expression values were calculated using the 7300 system SDS software (Applied Biosystems, Warrington, UK, http://europe.appliedbiosystems.com).
Cells were enzymatically passaged onto matrigel-coated dishes and grown for 2 weeks in defined media. After 14 days, qRT-PCR was utilised to analyse the expression of a variety of markers of pluripotency and differentiation. In the graphs in FIG. 9 the value 1 was set to the expression level of the gene in undifferentiated SA121 hESCs.
Cells were enzymatically passaged onto matrigel-coated dishes and grown for 2 weeks in defined media (1× confluent T25 tissue culture flask was passaged to 2×12 well dishes) with or without (control) compound addition. All compounds were added at 10 uM and each was performed in triplicate. Media and compounds were changed every 48 hours. After 14 days RNA was isolated and qRT-PCR was utilised to analyse the expression of NANOG and PAX6. The results are illustrated in FIGS. 13 to 17.
In the graphs in FIGS. 13, 14 15, 16 and 17 the value 1 was set relative to the expression level of the gene in the control (no compound) samples. […] This experiment allowed the effect of the EHNA-related compounds to be measured directly in comparison to EHNA. […] Those which had on effect, to these levels, on either PAX6 or NANOG were considered to have a partial-EHNA effect.

## CC(C)Cn1c(=O)n(C)c(=O)c2[nH]cnc21 [IBMX, 3-Isobutyl-1-methylxanthine, reference compound]
qRT-PCR, 14 days
  PAX6 expression in differentiating conditions: nor did they inhibit PAX6 induction
qRT-PCR, 14 days, FIG. 9a
  stem cell marker expression (NANOG, ZFP42, POU5F1) in differentiating conditions: Neither BAY nor IBMX maintained stem cell marker expression

## CCCCCCC(C(C)O)n1cnc2c(NC)ncnc21 (stereo not drawn) [HWC16, erythro-3-[6-(methylamino)-9H-purin-9-yl]nonan-2-ol]
10 uM, 14 days, qRT-PCR
  PARTIAL EHNA EFFECT (PAX6): X (Those which had on effect, to these levels, on either PAX6 or NANOG were considered to have a partial-EHNA effect)

## CCC[C@H](O)[C@@H](C)n1cnc2c(N)ncnc21 [HWC61, (2R,3S)-2-(6-amino-9H-purin-9-yl)hexan-3-ol]
10 uM, 14 days, qRT-PCR
  NO EHNA EFFECT: X

## CCC[C@H]([C@H](C)O)n1cnc2c(N)ncnc21 [HWC60, (2S,3R)-3-(6-Amino-9H-purin-9-yl)hexan-2-ol]
10 uM, 14 days, qRT-PCR
  NO EHNA EFFECT: X

## C[C@H]([C@@H](O)CCc1ccccc1)n1cnc2c(N)ncnc21.Cl [HWC42, (3S,4R)-4-(6-amino-9H-purin-9-yl)-1-phenylpentan-3-ol hydrochloride]
10 uM, 14 days, qRT-PCR
  PARTIAL EHNA EFFECT (PAX6): X (Those which had on effect, to these levels, on either PAX6 or NANOG were considered to have a partial-EHNA effect)

## CCCCCCCCCCn1cc2c(N)ncnc2n1.Cl [HWC6, 2-decyl-2H-pyrazolo[3,4-d]pyrimidin-4-amine hydrochloride]
10 uM, 14 days, qRT-PCR
  Full EHNA effect: X
FIG. 10
  prevention of differentiation of hESCs: can prevent differentiation of hESCs
qRT-PCR, 14 days
  PAX6 expression in differentiating conditions: inhibiting PAX6 expression
qRT-PCR, 14 days, relative to untreated control
  NANOG expression in differentiating conditions: capable of maintaining NANOG

## COc1ncnc2c1ncn2[C@H](C)[C@@H](O)CCc1ccccc1.Cl [HWC43, (3S,4R)-4-(6-methoxy-9H-purin-9-yl)-1-phenylpentan-3-ol hydrochloride]
10 uM, 14 days, qRT-PCR
  NO EHNA EFFECT: X

## CCCCCC[C@@H]([C@@H](C)O)n1cnc2c(OC)ncnc21.Cl [HWC15, erythro-3-(6-methoxy-9H-purin-9-yl)nonan-2-ol hydrochloride]
10 uM, 14 days, qRT-PCR
  NO EHNA EFFECT: X

## CCCCCC[C@@H](O)[C@H](C)n1cnc2c(N)ncnc21 [HWC50, (2S,3R)-2-(6-amino-9H-purin-9-yl)nonan-3-ol]
10 uM, 14 days, qRT-PCR
  PARTIAL EHNA EFFECT (PAX6): X (Those which had on effect, to these levels, on either PAX6 or NANOG were considered to have a partial-EHNA effect)

## Nc1ncnc2nn(CCN3CCOCC3)cc12 [HWC29, 2-(2-morpholinoethyl)-2H-pyrazolo[3,4-d]pyrimidin-4-amine]
10 uM, 14 days, qRT-PCR
  PARTIAL EHNA EFFECT (PAX6): X (Those which had on effect, to these levels, on either PAX6 or NANOG were considered to have a partial-EHNA effect)

## CCCCC[C@H](O)[C@@H](C)n1cnc2c(N)ncnc21 [HWC58, (2R,3S)-2-(6-amino-9H-purin-9-yl)octan-3-ol]
10 uM, 14 days, qRT-PCR, only NANOG at least 50% of EHNA level
  PARTIAL EHNA EFFECT (NANOG): X (Those which had on effect, to these levels, on either PAX6 or NANOG were considered to have a partial-EHNA effect)

## CCCCCCC(CC)n1cnc2c(N)ncnc21 (racemic) [HWC57, (rac)-9-(Nonan-3-yl)-9H-purin-6-amine]
10 uM, 14 days, qRT-PCR
  Full EHNA effect: X

## CCCCCC(CC)n1cnc2c(N)ncnc21 (racemic) [HWC62, (rac)-9-(octan-3-yl)-9H-purin-6-amine]
10 uM, 14 days, qRT-PCR
  Full EHNA effect: X

## CCCCCCCC(CC)n1cnc2c(N)ncnc21 (racemic) [HWC63, (rac)-9-(decan-3-yl)-9H-purin-6-amine]
10 uM, 14 days, qRT-PCR
  PARTIAL EHNA EFFECT (PAX6): X (Those which had on effect, to these levels, on either PAX6 or NANOG were considered to have a partial-EHNA effect)

## CCCCCC[C@@H]([C@@H](C)O)n1cnc2c(N)nccc21.Cl [HWC9, erythro-3-(4-Amino-1H-imidazo[4,5-c]pyridin-1-yl)nonan-2-ol hydrochloride]
10 uM, 14 days, qRT-PCR
  PARTIAL EHNA EFFECT (PAX6): X (Those which had on effect, to these levels, on either PAX6 or NANOG were considered to have a partial-EHNA effect)

## CCCCCC[C@@H]([C@@H](C)O)n1nnc2c(N)ncnc21 [HWC26, erythro-3-(7-amino-3H-[1,2,3]triazolo[4,5-d]pyrimidin-3-yl)nonan-2-ol]
10 uM, 14 days, qRT-PCR
  PARTIAL EHNA EFFECT (PAX6): X (Those which had on effect, to these levels, on either PAX6 or NANOG were considered to have a partial-EHNA effect)
